System: MDA-MB-231 cells
Assay: Vacuolation of MDA-MB-231 cells caused by inhibition of compounds on PIKfyve (microscopy)
Assay type: cell-based
Conditions: MDA-MB-231 cells
From the text: I. Determination of Vacuolation of MDA-MB-231 Cells Caused by Inhibition of Compounds on PIKfyve
When the activity of pikfyve kinase is inhibited, vacuoles will be produced in cytoplasm. By observing the number of vacuoles under a microscope, the ability of compounds to inhibit the activity of pikfyve kinase can be known.
1. Cell plating: cells in logarithmic growth phase were made into a single cell suspension, counted with a cell counter and diluted to a cell concentration of about 2×10^5/mL. Then, the cells were inoculated into a 12-well plate, and cultured in a 37° C., 5% CO2 incubator.
3. Vacuolation test: after 24 and 48 hours of culture, photos were taken under an […] to observe the degree of vacuolation.
(In the table, “+” represents the degree of vacuolation; more “+” indicates more obvious vacuolation; “−” represents no vacuolation)

SMILES	degree of vacuolation, 1 μM, 24 h	degree of vacuolation, 1 μM, 48 h	degree of vacuolation, 10 μM, 24 h	degree of vacuolation, 10 μM, 48 h
Cc1ccc(C(=O)Nc2cccc(OC(F)(F)F)c2)cc1Nc1nc(-c2cccnc2)cn2c(Br)cnc12 [VI-b-4]	−	−	+	+
O=C(Nc1cccc(C(F)(F)F)c1)c1ccc(F)c(Nc2cc(-c3cccnc3)nc3[nH]ccc23)c1 [I-a-38]	+	+	++	++
Cc1ccc(C(=O)Nc2cccc(C(F)(F)F)c2)cc1Nc1nc(-c2cccnc2)nc2ccn(C)c12 [V-b-3]	+	+	++	++
Cc1cn(-c2cc(NC(=O)c3ccc(C)c(Nc4nc(-c5cccnc5)nc5cc[nH]c45)c3)cc(C(F)(F)F)c2)cn1 [V-a-7]	−	−	+	+
Cc1cn(-c2cc(NC(=O)c3ccc(C)c(Nc4nc(-c5ccncc5)nc5cc[nH]c45)c3)cc(C(F)(F)F)c2)cn1 [V-a-8]	+	+	++	++
Cc1ccc(NC(=O)c2cccc(C(F)(F)F)c2)cc1Nc1nc(-c2ccncc2)nc2ccn(C)c12 [V-b-2]	−	−	++	++
Cc1cccc(NC(=O)c2ccc(C)c(Nc3cc(-c4cccnc4)nc4[nH]ccc34)c2)c1 [I-a-34]	+	++	+	++
Cc1ccc(C(=O)Nc2cccc(C(F)(F)F)c2)cc1Nc1nc(-c2ccccc2)nc2c1cnn2C [III-b-2]	−	−	−	−
CN1CCN(Cc2cc(NC(=O)c3cccc(Nc4cc(-c5ccncc5)nc5[nH]ccc45)c3)cc(C(F)(F)F)c2)CC1 [I-a-27]	+	−	+	−
Cc1cc(NC(=O)c2ccc(C)c(Nc3cc(-c4cccnc4)nc4[nH]ccc34)c2)n(C)n1 [I-a-45]	−	+	+	+
Cc1ccc(C(=O)Nc2cccc(OC(F)(F)F)c2)cc1Nc1cc(-c2cccnc2)nc2[nH]ccc12 [I-a-33]	+	++	+	++
Nc1ccc(NC(=O)c2cccc(Nc3nc(-c4cccnc4)c4[nH]ccc4n3)c2)cc1 [V-c-3]	+	+	++	++
COc1ccc(Br)cc1NC(=S)Nc1cccc(-c2nc(NCc3cccnc3)c3c(ccn3C)n2)c1 [V-b-30]	−	−	+	+
Cc1ccc(C(=O)Nc2cccc(OC(F)(F)F)c2)cc1Nc1nc(-c2ccncc2)nc2[nH]cnc12 [IV-a-7]	−	−	+	++
O=C(Nc1cccc(C(F)(F)F)c1)c1cccc(Nc2nc(-c3cccnc3)nc3cc[nH]c23)c1 [V-a-1]	−	−	+	+
Cc1ccc(NC(=O)c2ccc(CN3CCOCC3)c(C(F)(F)F)c2)cc1Nc1nc(-c2cccnc2)cn2c(Br)cnc12 [VI-b-6]	−	−	−	−
Cc1ccc(C(=O)Nc2cccc(C(F)(F)F)c2)cc1Nc1cc(-c2ccncc2)nc2[nH]ccc12 [I-a-21]	−	−	−	−
Cc1cc(NS(=O)(=O)c2ccccc2)ccc1Nc1nc(-c2cccnc2)c2[nH]ccc2n1 [V-c-35]	−	−	+	+
Cc1ccc(NC(=O)c2cccc(C(F)(F)F)c2)cc1Nc1nc(-c2ccncc2)nc2cc[nH]c12 [V-a-4]	−	−	−	−
Cc1ccc(C(=O)Nc2ccc(CN3CCN(C)CC3)c(C(F)(F)F)c2)cc1Nc1nc(-c2cccnc2)nc2c1ncn2C [IV-b-9]		−		−
Cc1ccc(NC(=O)c2cccc(C(F)(F)F)c2)cc1Nc1nc(-c2cccnc2)cn2ccnc12 [VI-a-5]	−	+	−	+
Cc1ccc(C(=O)Nc2ccc(CN3CCN(C)CC3)c(C(F)(F)F)c2)cc1Nc1nc(-c2ccncc2)nc2cc[nH]c12 [V-a-10]	++	++	−	−
Cc1cc(NC(=O)c2ccccc2N)ccc1Nc1nc(-c2cccnc2)c2[nH]ccc2n1 [V-c-25]	−	−	−	−
Cc1ccc(NC(=S)Nc2cccc(C(F)(F)F)c2)cc1Nc1cc(-c2cccnc2)nc2[nH]ccc12 [I-a-40]	+	+	+	+
Cc1ccc(C(=O)Nc2ccc(CN3CCN(C)CC3)c(C(F)(F)F)c2)cc1Nc1cc(-c2cccnc2)nc2[nH]ccc12 [I-a-24]	−	−	−	−
Cc1ccc(C(=O)Nc2ccc(CN3CCN(C)CC3)c(C(F)(F)F)c2)cc1Nc1nc(-c2cccnc2)nc2ccn(C)c12 [V-b-7]	+	+	−	−
Cc1ccc(NC(=O)c2cccc(C(F)(F)F)c2)cc1Nc1nc(-c2cccnc2)nc2cc[nH]c12 [V-a-3]	++	++	+	+
Cc1ccc(C(=O)Nc2cc(C(F)(F)F)cc(C(F)(F)F)c2)cc1Nc1cc(-c2cccnc2)nc2[nH]ccc12 [I-a-31]	−	−	−	−

From US11352354B2, “Substituted penta-fused hexa-heterocyclic compounds, preparation method therefor, drug combination and use thereof” (Xiamen University, priority 2017, dated 2022)
